Data reported in ChEMBL document CHEMBL1201862, “PubChem BioAssay data set” (2004).
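Method: 48-hour compound exposure of cells in 96-well plates, five concentrations, linear interpolation of endpoints. GI50 is the concentration that inhibits growth by half.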 Activity calls are given as the source filed them. No stated cut-off is given here; in the data, active = GI50 up to about 1.1 µM and inactive = higher.

Columns and labels:
Test in all cases: inhibition of tumour cell growth, NCI panel, 48 h
A498 = tested on: A498
ACHN = tested on: ACHN
EKVX = tested on: EKVX
IGROV-1 = tested on: IGROV-1
LXFL 529 = tested on: LXFL 529
M14 = tested on: M14
NCI-H226 = tested on: NCI-H226
NCI-H23 = tested on: NCI-H23
NCI-H460 = tested on: NCI-H460
OVCAR-4 = tested on: OVCAR-4
SK-MEL-28 = tested on: SK-MEL-28
SK-MEL-5 = tested on: SK-MEL-5
SK-OV-3 = tested on: SK-OV-3
SNB-19 = tested on: SNB-19
SNB-75 = tested on: SNB-75
TK-10 = tested on: TK-10
UO-31 = tested on: UO-31
HCT-15 = tested on: HCT-15
MDA-MB-435 = tested on: MDA-MB-435
MDA-N = tested on: MDA-N

| SMILES | GI50 (A498) | GI50 (ACHN) | GI50 (EKVX) | GI50 (IGROV-1) | GI50 (LXFL 529) | GI50 (M14) | GI50 (NCI-H226) | GI50 (NCI-H23) | GI50 (NCI-H460) | GI50 (OVCAR-4) | GI50 (SK-MEL-28) | GI50 (SK-MEL-5) | GI50 (SK-OV-3) | GI50 (SNB-19) | GI50 (SNB-75) | GI50 (TK-10) | GI50 (UO-31) | GI50 (HCT-15) | GI50 (MDA-MB-435) | GI50 (MDA-N) |
| --- | --- | --- | --- | --- | --- | --- | --- | --- | --- | --- | --- | --- | --- | --- | --- | --- | --- | --- | --- | --- |
| Cc1ccc(NC(=O)CC2Sc3ccccc3NC2=O)c(C)c1 (stereo unspecified) | 14 µM (inactive) | 18.8 µM (inactive) | 46.7 µM (inactive) | 23.6 µM (inactive) | 24.7 µM (inactive) | 12.4 µM (inactive) | 14.8 µM (inactive) | 16.2 µM (inactive) | 11.4 µM (inactive) | 22 µM (inactive) | 20.1 µM (inactive) | 6.97 µM (inactive) | 15.5 µM (inactive) | 14.7 µM (inactive) | 4.52 µM (inactive) | 20.2 µM (inactive) | 13 µM (inactive) | – | – | – |
| c1ccc(CN2COc3c(ccc4c5c(ccc34)CN(Cc3ccccc3)CO5)C2)cc1 | > 100 µM (inactive) | > 100 µM (inactive) | > 100 µM (inactive) | > 100 µM (inactive) | > 100 µM (inactive) | > 100 µM (inactive) | > 76.6 µM (inactive) | > 100 µM (inactive) | > 100 µM (inactive) | > 100 µM (inactive) | > 100 µM (inactive) | > 100 µM (inactive) | > 100 µM (inactive) | > 100 µM (inactive) | > 100 µM (inactive) | > 100 µM (inactive) | > 100 µM (inactive) | > 100 µM | > 100 µM (inactive) | > 100 µM (inactive) |
| COc1cccc2c1C(CO)N1C(C#N)C3CC(C(=O)O)C(C1C2)N3C (stereo unspecified) | 2.77 µM (inactive) | 3.36 µM (inactive) | 6.19 µM (inactive) | – | 2.56 µM (inactive) | 4.37 µM (inactive) | – | 1.57 µM (inactive) | 5.19 µM (inactive) | 4.91 µM (inactive) | 1.56 µM (inactive) | 1.69 µM (inactive) | 3.6 µM (inactive) | 2.62 µM (inactive) | 1.6 µM (inactive) | 2.11 µM (inactive) | 1.59 µM (inactive) | 1.43 µM | 0.349 µM (active) | 0.273 µM (active) |
| NC(CCSCC(F)F)C(=O)O (stereo unspecified) | > 100 µM (inactive) | > 100 µM (inactive) | > 100 µM (inactive) | > 100 µM (inactive) | > 100 µM (inactive) | > 100 µM (inactive) | > 100 µM (inactive) | > 100 µM (inactive) | > 100 µM (inactive) | > 100 µM (inactive) | > 100 µM (inactive) | > 100 µM (inactive) | – | > 100 µM (inactive) | > 100 µM (inactive) | > 100 µM (inactive) | > 100 µM (inactive) | > 100 µM | – | – |
| COc1ccc(O)c2c(=O)ccccc12 | > 100 µM (inactive) | > 100 µM (inactive) | > 100 µM (inactive) | > 100 µM (inactive) | > 100 µM (inactive) | > 100 µM (inactive) | 46.2 µM (inactive) | > 100 µM (inactive) | > 100 µM (inactive) | > 100 µM (inactive) | > 100 µM (inactive) | > 100 µM (inactive) | > 100 µM (inactive) | > 100 µM (inactive) | > 100 µM (inactive) | 6.32 µM (inactive) | 78.2 µM (inactive) | > 100 µM | – | – |
| O=C1CCNC/C1=C\c1ccccc1 | > 100 µM (inactive) | 22.9 µM (inactive) | > 100 µM (inactive) | 29.9 µM (inactive) | 16.1 µM (inactive) | 14 µM (inactive) | 24 µM (inactive) | 18.2 µM (inactive) | 30.9 µM (inactive) | 15.9 µM (inactive) | 17.4 µM (inactive) | 20.3 µM (inactive) | 55 µM (inactive) | 19.4 µM (inactive) | 37.8 µM (inactive) | 26.1 µM (inactive) | 17 µM (inactive) | 17.1 µM | – | – |
| COc1cc([C@@H]2c3cc4c(cc3[C@@H](NC(=O)c3cccc(F)c3)C3COC(=O)[C@@H]32)OCO4)cc(OC)c1O (stereo partly specified) | 1.27 µM (inactive) | 0.125 µM (active) | 2.1 µM (inactive) | 1.19 µM (inactive) | 5.5 µM (inactive) | 1.26 µM (inactive) | 0.207 µM (active) | 0.522 µM (active) | < 0.01 µM (active) | 38.5 µM (inactive) | 2.94 µM (inactive) | 1.14 µM (inactive) | 1.26 µM (inactive) | 0.664 µM (active) | 1.23 µM (inactive) | 3.35 µM (inactive) | 2.99 µM (inactive) | 1.45 µM | – | – |
